US11802120B2, “Fused cyclic urea derivatives as CRHR2 antagonist” (RaQualia Pharma Inc., priority 2018, dated 2023)

The compounds below were run against T1, human CRHR2-alpha (Homo sapiens, UniProt Q13324) (assay: cAMP functional assay for human CRHR2 (LANCE Ultra cAMP, TR-FRET)). Details: CHO-K1 cells expressing human CRHR2-alpha, agonist human urocortin2 at EC80, cAMP; read-out: IC50 against CRHR2.
T1 sequence (Q13324 1-411): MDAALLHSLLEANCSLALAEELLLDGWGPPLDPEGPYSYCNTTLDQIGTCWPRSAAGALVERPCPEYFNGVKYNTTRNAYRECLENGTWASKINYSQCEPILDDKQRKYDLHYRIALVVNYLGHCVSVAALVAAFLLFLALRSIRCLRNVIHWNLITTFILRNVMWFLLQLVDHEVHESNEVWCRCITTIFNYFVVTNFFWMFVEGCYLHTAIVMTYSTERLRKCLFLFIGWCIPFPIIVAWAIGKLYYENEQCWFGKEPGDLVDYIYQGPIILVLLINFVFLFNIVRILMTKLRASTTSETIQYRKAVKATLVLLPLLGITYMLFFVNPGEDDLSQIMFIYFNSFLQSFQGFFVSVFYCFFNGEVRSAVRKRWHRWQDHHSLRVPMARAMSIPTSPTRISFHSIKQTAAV
Type: cell-based
Method: cAMP functional assay for human CRHR1 and CRHR2
The ability of the compounds of this invention to inhibit either CRHR2 or CRHR1 is assessed by 3′,5′-cyclic adenosine monophosphate (cAMP) production in cells using the LANCE Ultra cAMP assay kit (ParkinElmer), which are designed based on the homogeneous time-resolved fluorescence resonance energy transfer (TR-FRET) immunoassay.
CHO-K1 (Chinese hamster ovary) cells stably expressing either human CRHR2-alpha (DiscoveRX, Cat. 95-0048C2) or human CRHR1-beta (DiscoveRX, Cat. 95-0047C2) are grown in HAM's F12 media supplemented with 10% fetal bovine serum (FBS), 100 units/mL penicillin, 100 microg/mL hygromycin and 0.5 microg/mL geneticin at 37° C. in 5% CO2 humidified incubator to 80% confluence. After 7 hours starvation treatment in culture media containing 0.1% FBS, the cells are washed with Hanks balanced salt solution (HBSS) and cryopreserved.
For cAMP assay, frozen cells are thawed and washed with HBSS, followed by resuspended in assay buffer (HBSS containing 0.1% bovine serum albumin, 0.5 mM isobutylmethylxanthine and 5 mM Hepes, pH 7.4) at the appropriate concentration for the assay. The cell suspensions are plated on 384-well microplates (Greiner Bio-One) at a density of 4,000 cells per well. After preincubating the cells with various concentrations of the compounds for 30 min at 25° C., an assay buffer containing EC80 concentration of each agonist is added and the cells are incubated for 30 min at 25° C. Human urocortin2 (Peptide Institute) and CRF (Peptide Institute) are used as agonists for CRHR2 and CRHR1, respectively. For the termination of assay, europium-labeled cAMP tracer and ULight (registered trademark) dye labeled cAMP antibodies, both prepared with Lance-Ultra cAMP detection reagent (Perkin Elmer) are added in the plate and incubate for 60 min at 25° C. After incubation, TR-FRET signal is detected by EnVision plate reader (PerkinElmer). The IC50 values for compounds are calculated from dose-response curves by fitting the percent inhibition using XLfit (ID Business Solutions).

IC50, < 300 nM:
Cc1ccc(-n2c(=O)n(C[C@H]3CC[C@H](NC(=O)c4cc(Cl)ccc4C)CC3)c3ccccc32)cn1 [Example 267, 5-chloro-2-methyl-N-((1r,4r)-4-((3-(6-methyl-pyridin-3-yl)-2-oxo-2,3-dihydro-1H-benzo[d]imidazol-1-yl)methyl)cyclo-hexyl)benzamide]
COc1ccc(Cl)c(-n2c(=O)n(C[C@H]3CC[C@H](NC(=O)c4cc(Cl)cnc4C(F)F)CC3)c3cnccc32)c1 [Example 631, 5-chloro-N-((1r,4r)-4-((1-(2-chloro-5-methoxyphenyl)-2-oxo-1H-imidazo[4,5-c]pyridin-3(2H)-yl)methyl)cyclohexyl)-2-(difluoromethyl) nicotinamide]
Cc1ncc(Cl)cc1C(=O)N[C@H]1CC[C@H](Cn2c(=O)n(-c3cnc4c(c3)CCN4)c3ccccc32)CC1 [Example 152, 5-chloro-N-((1r,4r)-4-((3-(2,3-dihydro-1H-pyrrolo[2,3-b]pyridin-5-yl)-2-oxo-2,3-dihydro-1H-benzo[d]imidazol-1-yl)methyl)cyclohexyl)-2-methylnicotinamide]
O=C(N[C@H]1CC[C@H](Cn2c(=O)n(-c3ccnc(-n4ccnc4)c3)c3ccccc32)CC1)c1cc(Cl)cnc1C(F)F [Example 570, N-((1r,4r)-4-((3-(2-(1H-imidazol-1-yl)pyridin-4-yl)-2-oxo-2,3-dihydro-1H-benzo [d]imidazol-1-yl)methyl)cyclohexyl)-5-chloro-2-(difluoromethyl)nicotinamide]
Cc1ncc(Cl)cc1C(=O)N[C@H]1CC[C@H](Cn2c(=O)n(-c3ccc4ncccc4c3)c3ccccc32)CC1 [Example 344, 5-chloro-2-methyl-N-((1r,4r)-4-((2-oxo-3-(quinolin-6-yl)-2,3-dihydro-1H-benzo[d]imidazol-1-yl)methyl)cyclo-hexyl)nicotinamide]
O=C(N[C@H]1CC[C@H](Cn2c(=O)n(-c3ccc(OCCF)nc3)c3ccccc32)CC1)c1cc(Cl)cnc1C(F)F [Example 432, 5-chloro-2-(difluoromethyl)-N-((1r,4r)-4-((3-(6-(2-fluoroethoxy)pyridin-3-yl)-2-oxo-2,3-dihydro-1H-benzo[d]imidazol-1-yl)methyl)cyclohexyl)nicotinamide]
CC(=O)N1Cc2ccc(-n3c(=O)n(C[C@H]4CC[C@H](NC(=O)c5cc(Cl)cnc5C)CC4)c4ccccc43)cc2C1 [Example 188, N-((1r,4r)-4-((3-(2-acetylisoindolin-5-yl)-2-oxo-2,3-dihydro-1H-benzo[d]imidazol-1-yl)methyl)cyclohexyl)-5-chloro-2-methylnicotinamide]
Cc1ncc(Cl)cc1C(=O)N[C@H]1CC[C@H](Cn2c(=O)n(-c3ccc(C4CCC4)nc3)c3ccccc32)CC1 [Example 279, 5-chloro-N-((1r,4r)-4-((3-(6-cyclobutylpyridin-3-yl)-2-oxo-2,3-dihydro-1H-benzo[d]imidazol-1-yl)methyl)cyclohexyl)-2-methylnicotinamide]
Cc1ncc(Cl)cc1C(=O)N[C@H]1CC[C@H](Cn2c(=O)n(-c3ccc(N4CCCC(O)C4)nc3)c3ccccc32)CC1 (stereo partly drawn) [Example 95, 5-chloro-N-((1r,4r)-4-((3-(6-(3-hydroxypiperidin-1-yl)pyridin-3-yl)-2-oxo-2,3-dihydro-1H-benzo[d]imidazol-1-yl)methyl)cyclohexyl)-2-methylnicotinamide]
Cc1ncc(Cl)cc1C(=O)N[C@H]1CC[C@H](Cn2c(=O)n(-c3cccc(-n4ccnn4)c3)c3ccccc32)CC1 [Example 537, N-((1r,4r)-4-((3-(3-(1H-1,2,3-triazol-1-yl)phenyl)-2-oxo-2,3-dihydro-1H-benzo[d]imidazol-1-yl)methyl)cyclohexyl)-5-chloro-2-methylnicotinamide]
Cc1ncc(Cl)cc1C(=O)N[C@H]1CC[C@H](Cn2c(=O)n(-c3ccnc(-c4ccn(C)n4)c3)c3ccccc32)CC1 [Example 655, 5-chloro-2-methyl-N-((1r,4r)-4-((3-(2-(1-methyl-1H-pyrazol-3-yl)pyridin-4-yl)-2-oxo-2,3-dihydro-1H-benzo[d]imidazol-1-yl)methyl)cyclohexyl)nicotinamide]
Cc1c[nH]c2ncc(-n3c(=O)n(C[C@H]4CC[C@H](NC(=O)c5cc(Cl)cnc5C(F)(F)F)CC4)c4ccccc43)cc12 [Example 425, 5-chloro-N-((1r,4r)-4-((3-(3-methyl-1H-pyrrolo[2,3-b]pyridin-5-yl)-2-oxo-2,3-dihydro-1H-benzo[d]imidazol-1-yl)methyl)cyclo-hexyl)-2-(trifluoromethyl) nicotinamide]
Cc1ncc(Cl)cc1C(=O)N[C@H]1CC[C@H](Cn2c(=O)n(-c3ccc(-n4cccn4)nc3)c3ccccc32)CC1 [Example 637, N-((1r,4r)-4-((3-(6-(1H-pyrazol-1-yl)pyridin-3-yl)-2-oxo-2,3-dihydro-1H-benzo[d]imidazol-1-yl)methyl)cyclohexyl)-5-chloro-2-methylnicotinamide]
Cc1ncc(Cl)cc1C(=O)N[C@H]1CC[C@H](Cn2c(=O)n(-c3cccnc3C(F)(F)F)c3ccccc32)CC1 [Example 318, 5-chloro-2-methyl-N-((1r,4r)-4-((2-oxo-3-(2-(trifluoro-methyl)pyridin-3-yl)-2,3-dihydro-1H-benzo[d]imidazol-1-yl)methyl)cyclohexyl) nicotinamide]
Cc1ncc(Cl)cc1C(=O)N[C@H]1CC[C@H](Cn2c(=O)n(-c3ccc(F)cc3F)c3ccccc32)CC1 [Example 46, 5-chloro-N-((1r,4r)-4-((3-(2,4-difluorophenyl)-2-oxo-2,3-dihydro-1H-benzo[d]imidazol-1-yl)methyl)cyclohexyl)-2-methylnicotinamide]
Cc1ncc(Cl)cc1C(=O)N[C@H]1CC[C@H](Cn2c(=O)n(-c3ccc(N4CC(F)(F)C4)nc3)c3ccccc32)CC1 [Example 146, 5-chloro-N-((1r,4r)-4-((3-(6-(3,3-difluoroazetidin-1-yl)pyridin-3-yl)-2-oxo-2,3-dihydro-1H-benzo[d]imidazol-1-yl)methyl)cyclo-hexyl)-2-methylnicotinamide]
Cc1ncc(Cl)cc1C(=O)N[C@H]1CC[C@H](Cn2c(=O)n(-c3ccc(N4CCOCC4)nc3)c3ccccc32)CC1 [Example 54, 5-chloro-2-methyl-N-((1r,4r)-4-((3-(6-morpholinopyridin-3-yl)-2-oxo-2,3-dihydro-1H-benzo[d]imidazol-1-yl)methyl)cyclohexyl) nicotinamide]
Cc1c[nH]c2ncc(-n3c(=O)n(C[C@H]4CC[C@H](NC(=O)c5cc(Cl)cnc5C(F)F)CC4)c4ncccc43)cc12 [Example 578, 5-chloro-2-(difluoromethyl)-N-((1r,4r)-4-((1-(3-methyl-1H-pyrrolo[2,3-b]pyridin-5-yl)-2-oxo-1H-imidazo[4,5-b]pyridin-3(2H)-yl)methyl)cyclohexyl)nicotinamide]
CNC(=O)c1ccc(-n2c(=O)n(C[C@H]3CC[C@H](NC(=O)c4cc(Cl)ccc4OC(F)F)CC3)c3ccccc32)cn1 [Example 533, 5-(3-(((1r,4r)-4-(5-chloro-2-(difluoromethoxy)benzamido)cyclohexyl)methyl)-2-oxo-2,3-dihydro-1H-benzo[d]imidazol-1-yl)-N-methylpicolinamide]
C=Cc1ccc(-n2c(=O)n(C[C@H]3CC[C@H](NC(=O)c4cc(Cl)cnc4C)CC3)c3ccccc32)cn1 [Example 70, 5-chloro-2-methyl-N-((1r,4r)-4-((2-oxo-3-(6-vinylpyridin-3-yl)-2,3-dihydro-1H-benzo[d]imidazol-1-yl)methyl)cyclohexyl)nicotinamide]
Cc1ncc(Cl)cc1C(=O)N[C@H]1CC[C@H](Cn2c(=O)n(-c3ccc4[nH]nc(C)c4c3)c3ccccc32)CC1 [Example 170, 5-chloro-2-methyl-N-((1r,4r)-4-((3-(3-methyl-1H-indazol-5-yl)-2-oxo-2,3-dihydro-1H-benzo[d]imidazol-1-yl)methyl)cyclohexyl)nicotinamide]
